Assay results reported in article PMC8481536, “Wells–Dawson phosphotungstates as mushroom tyrosinase inhibitors: a speciation study” (Scientific Reports, 2021).

Test: Charge density (q/m, charges per addenda metal ion) of POT anions
Assay type: physicochemical
Settings: for Charge density q/m of the anion: Wells–Dawson POTs and their products; for Charge density q/m of POT product Hx[α2-P2W17O61](10−x)−, x = 3 / Charge density q/m of POT product Hx[α2-P2W17O61](10−x)−, x = 4: product formed from the educt at pH 6.8
From the text: The charge density of POMs, expressed in number of charges (q) per addenda metal ions (m), is a criterion to characterize the chaotropic behavior of POMs (Table S6)[49]–[53]. […] The activity of [P2W18]^6−, [P2W17]^10− and [P2W15]^12− solutions correlates with the amount of the dominant monolacunary anion [α2-P^V2W^VI17O61]^10− in Na-citrate buffer at pH 6.8 (Fig. 3, Scheme S1). For the unprotonated form of the active monolacunary Wells–Dawson anion [α2-P^V2W^VI17O61]^10− the q/m ratio is 0.59 (Table 2), however, the protonation of this anion in neutral solutions has previously been shown by electrochemical analysis in combination with theoretical calculations[47],[55]. For POMs the proton affinity difference between the terminal and bridging oxygen is around 11 kcal mol^−1[56], proving that the four oxygen atoms surrounding the lacuna are much more basic than the bridging and terminal O atoms (Fig. 1B), and thus prone to protonation. Electrospray-ionization mass spectrometry (ESI–MS) has already been successfully used for the protonation states assignment of Wells–Dawson POTs containing different heteroatoms. Consequently, ESI–MS has been applied to investigate the protonation state of monolacunary [α2-P^V2W^VI17O61]^10−. When recording ESI–MS for POMs in Na-citrate buffer, the relative intensity of citrate anion signals is almost 100%, suppressing POM signals. […] The spectra recorded in both solvents show signals for NaH4[α2-P^V2W^VI17O61]^5- at 838.0 and NaKH3[α2-P^V2W^VI17O61]^5- at 845.6 m/z, while species with lower protonation states have not been detected (Fig. S19). Therefore, the monolacunary anion [α2-P^V2W^VI17O61]^10− is present as the three-fold protonated anion H3[α2-P^V2W^VI17O61]^7- with a charge density of 0.41 and the four-fold protonated anion H4[α2-P^V2W^VI17O61]^6− with a charge density of 0.35. The predominant species in [P2W12]^12− is the wheel-shaped [P^V8W^VI48O184]^40− (23%), which can be protonated to H16[P^V8W^VI48O184]^24−[58] q/m = 0.5. Due to the compositional complexity of the hexalacunary anion it is impossible to accurately correlate its activity with the POTs’ charge density.
10 Summary of POT charge densities of Keggin and Wells-Dawson POTs
In order to facilitate comparison of the inhibitory capacities of the Keggin and Wells-Dawson POT samples tested in our laboratory against AbPPO4 and to obtain a structure-activity correlation, the charge densities (anionic charge per W addenda atom) of the species present […]
the charge densities, the following stability windows for POTs can be identified:
1) intact closed clusters: q/m ≈ 0.33 – 0.50
Structures with higher charge densities were not analyzed. Structures with a q/m value lower than 0.33 are prone to hydrolysis or reduction under suitable conditions, both leading to an increase in charge density.
2) lacunary clusters: q/m = 0.35 – 0.45
Structures with lower charge densities were not analyzed. Structures with a q/m value higher than 0.45 achieve stabilization by taking up protons for charge compensation. However, too […]
these pathways result in a decrease in charge density.
Overall, the preferred stable charge densities at neutral pH of both the intact and lacunary POTs […]
for intact clusters. This seems to be an intrinsic POT property as a combined result of 1) the reactivity of lacunary oxygen sites and 2) the hydrolytic susceptibility to hydroxide anions in aqueous solution in competition with electrostatic repulsion with the anionic POT charge. […]
metal centers in their oxygen-bound environment.
The scenario is different when looking at the POT interaction with the enzyme AbPPO4. Among […]
values show a clear correlation to the q/m values, with the lowest charge density corresponding to the highest protein affinity. But going to the larger Wells-Dawson archetype, comparing the active lacunary species H [PVWVI O ]4- (Keggin) and H [α -PV WVI O ](10-x)- (x = 3 or 4) (Wells- […]
charge densities. As stated in the main text, the basic inhibition effect shown by the Wells- […]

Substance	Charge density q/m of the anion (listed as [PV2WVI15O56]12-)	Charge density q/m of the anion (listed as [P^V2W^VI15O56]^12−)	Charge density q/m of POT product Hx[α2-P2W17O61](10−x)−, x = 3	Charge density q/m of POT product Hx[α2-P2W17O61](10−x)−, x = 4	Charge density q/m of the anion (listed as H2[PV2WVI12O48]12-)	Charge density q/m of the anion (listed as H2[P^V2W^VI12O48]^12−)	Charge density q/m of the anion
K12[P^V2W^VI15O56]·24H2O [[P2W15]^12−]	0.80	0.8	0.41	0.35			
(NH4)12[H2P^V2W^VI12O48]·24H2O [[P2W12]^12−]					1.00	1	
K10[α2-P^V2W^VI17O61]·20H2O [[P2W17]^10−]			0.41	0.35			0.59
K6[α/β-P^V2W^VI18O62]·14H2O [[P2W18]^6−]			0.41	0.35			0.33
